Legend:
Format in all cases: in vivo
[1] = tested on: rat foot edema induced by carrageenin; experiment: rat foot edema induced by carrageenin; conditions: oral administration; for inhibition as anti-inflammatory agent (rat foot edema): doses of 10, 20, 30 and 40 mg/kg, carrageenin 100 μg/foot, edema volume at third hour, dose for the value not stated
Protocol: Each bar represents the average ±SE (n=6) of the increase in edema volume (third hour) after the injection of carrageenin. Data were analyzed by one-way ANOVA and by Dunnett's multiple comparison variation test and the statistical significance was made for the level of p<0.05 (*) and p<0.01 (**).

[2] = tested on: writhing induced by 0.6% acetic acid solution in mice; experiment: writhing test induced by intraperitoneal injection of acetic acid; conditions: oral administration, doses of 10, 20, 30 and 40 mg/kg; 0.6% acetic acid i.p. in mice; number of writhing in 20 minutes; dose for the value not stated
Protocol: Each bar represents the average ±SE (n=6) of the number of writhing in 20 minutes for different doses. Data were analyzed by one-way ANOVA and by Dunnett's multiple comparison variation test and the statistical significance was made for the level of p<0.05 (*) and p<0,01 (**)

digestive system = experiment: preliminary tests of side effects (gastric, biochemical, hematological)

| Compound | efficacy as anti-inflammatory agent ([1]; 10-40 mg/kg, carrageenin-induced rat foot edema) | inhibition as analgesic agent (writhing test) [2] | inhibition as anti-inflammatory agent (rat foot edema) [1] | gastric effects (digestive system) | other biochemical and hematological disturbances (digestive system) |
| --- | --- | --- | --- | --- | --- |
| c1ccc(COC2OC[C@@H](Cc3ccc4c(c3)OCO4)[C@@H]2Cc2ccc3c(c2)OCO3)cc1 (stereo partly drawn) [compound 5, (-)—O-benzyl cubebin] | not efficient as an anti-inflammatory agent | 89% |  |  |  |
| (-)-6,6′-dinitroinokinin [compound 7] |  | 75% | 62% |  |  |
| Nc1cc2c(cc1CC1COC(=O)C1Cc1cc3c(cc1N)OCO3)OCO2 (single isomer, unassigned; (-)) [compound 8, (-)-6,6′-diaminohinokinin] |  | 92% | 82% | not evident | non-occurrence |
| COc1ccc2c(c1)c(CC(=O)O)c(C)n2C(=O)c1ccc(Cl)cc1 [indomethacin, reference compound] |  |  |  | gastric effects as observed |  |
| O=C1OC[C@@H](Cc2ccc3c(c2)OCO3)[C@@H]1Cc1ccc2c(c1)OCO2 [compound 6, (-)-hinokinin] |  | 95% | 71% | not evident | non-occurrence |

— patent US20080214661A1, “Process To Obtain Dibenzylbutyrolactonic, Tetrahydrofuranic Lignans And Their Synthetic And Semi-Synthetic Derivatives, Their Analgesic And Anti-Inflammatory Activities, Topical And/Or Systemic Formulations Containing Said Lignans And Their Respective Therapeutic Method” (FUNDACADO DE AMPARO A PESQUISA DO ESTADO DE SAO PAULO, priority 2005, published 2008)
